In the assay the target is T1, HMG CoA Reductase (Mus musculus, UniProt Q01237).
T1 construct: 10% homogenates of CF1 male mouse liver; from tissue; host or cells: CF1 male mouse liver, post-mitochondrial supernatant
T1 sequence (Q01237 1-887): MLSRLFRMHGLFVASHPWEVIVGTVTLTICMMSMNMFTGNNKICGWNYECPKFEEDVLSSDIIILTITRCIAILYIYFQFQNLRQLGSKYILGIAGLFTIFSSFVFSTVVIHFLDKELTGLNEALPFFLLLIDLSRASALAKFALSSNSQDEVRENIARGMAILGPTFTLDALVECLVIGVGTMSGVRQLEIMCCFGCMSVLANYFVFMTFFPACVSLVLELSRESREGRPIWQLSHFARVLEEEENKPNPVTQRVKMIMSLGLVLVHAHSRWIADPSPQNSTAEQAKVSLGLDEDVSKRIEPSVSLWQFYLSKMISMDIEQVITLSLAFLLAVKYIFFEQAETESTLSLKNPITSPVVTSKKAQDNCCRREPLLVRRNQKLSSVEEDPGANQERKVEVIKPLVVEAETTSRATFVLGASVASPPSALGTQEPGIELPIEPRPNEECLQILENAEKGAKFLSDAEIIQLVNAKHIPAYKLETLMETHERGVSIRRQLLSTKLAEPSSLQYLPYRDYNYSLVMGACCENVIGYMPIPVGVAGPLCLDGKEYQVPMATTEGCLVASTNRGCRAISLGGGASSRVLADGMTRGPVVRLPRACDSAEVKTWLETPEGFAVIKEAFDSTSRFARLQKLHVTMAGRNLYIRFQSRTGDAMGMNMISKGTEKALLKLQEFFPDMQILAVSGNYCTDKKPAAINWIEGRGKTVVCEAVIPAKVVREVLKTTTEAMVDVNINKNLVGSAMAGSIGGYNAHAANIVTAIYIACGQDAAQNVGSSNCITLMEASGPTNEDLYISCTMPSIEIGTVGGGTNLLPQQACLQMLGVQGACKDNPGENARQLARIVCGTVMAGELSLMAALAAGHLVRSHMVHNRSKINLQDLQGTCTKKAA
Nature of the assay: In vivo liver enzyme study: HMG CoA reductase. The settings on record: CF1 liver after 16 days i.p. As for the experimental part:
In vitro enzymatic studies were determined using 10% homogenates of CF1 male mouse liver with 50-200 μM of test drugs. In vivo enzymatic studies were determined using 10% homogenates of liver from CF1 male mice obtained after administering the agents for 16 days at a dose ranging from 2.5-20 mg/kg/day intraperitoneally. The liver homogenates for both in vitro and in vivo studies were prepared in 0.25M sucrose and 0.001M (ethylenedinitrilo)tetraacetic acid. Acetyl coenzyme A synthetase and adenosine triphosphate dependent citrate lyase activities were determined spectrophotometrically at 540 nm as the hydroxylamate of acetyl coenzyme A formed after 30 min at 37° C. Mitochondrial citrate exchange was determined by the procedure of Robinson et al [Eur. J. Biochem., 216, 63 (1970)] using ^14 C-sodium bicarbonate (41 mCi/mmol) incorporated into mitochondrial ^14 C-citrate after isolating rat mitochondria (9000 g×10 min) from the homogenates. The exchanges of the ^14 C-citrate were determined after incubating the mitochondrial fraction which was loaded with labeled citrate and test drugs for 10 min. Then the radioactivity was measured in the mitochondrial and supernantant fractions in scintillation fluid and expressed as a percentage. Cholesterol side chain oxidation was determined by the method of Kritchevsky and Tepper [Artherosclerosis, 18, 93 (1973)] using (26-^14 C) cholesterol (50 mCi/mmol) and mitochondria isolated from rat liver homogenates. […] Fatty acid synthetase activity was determined by the method of Brady et al [J. Biol. Chem., 235, 3093 (1960)] using [2-^14 C] malonyl-coenzyme A (37.5 mCi/mmol) which was incorporated into newly synthesized fatty acids that were extracted with ether and counted. Acyl transferase activity was determined with glycerol-3phosphate [L-2-^3 H(N)] […] HCl and counted. Phosphatidate phosphohydrolase activity was measured as the inorganic phosphate released after 30 min from phosphatidic acid by the method of Mavis et al [J. Lipid Res., 19, 467 (1978)]. […]

Consider “{Cu[(CH3)3 N.BH2 CO2 ]2.(CH3)3 N.BH2 COOH} [Compound I]”, for which the “HMG CoA Reductase” value by setting is: (2.5 mg/kg) 112 ± 8% of control; (5.0 mg/kg) 108 ± 9% of control; (10 mg/kg) 102 ± 8% of control.

Source of the values: patent US4550186A, “Binuclear copper (II) carboxylates formed from amine-carboxyboranes” (Duke University, priority 1983, dated 1985).
